Results taken from patent US20230391768A2, “IMIDAZOPYRIDINE DERIVATIVES AND AZA-IMIDAZOPYRIDINE DERIVATIVES AS JANUS KINASE 2 INHIBITORS AND USES THEREOF” (Dana-Farber Cancer Institute, Inc., priority 2018, published 2023).

Tests used:
Assay in all cases: KINOMEscan
Format in all cases: binding
Conditions in all cases: read-out: percent of control
ACVR1 = ACVR1 (Homo sapiens (Human), UniProt Q04771)
Procedure: (§1) In vitro profiling of Compound I-2 (1 μM) was performed using the DiscoveRx KINOMEscan® platform.

ALK = ALK (Homo sapiens (Human), UniProt Q9UM73)
Procedure: as §1

AMPK-alpha1 = AMPK-alpha1 (Homo sapiens (Human), UniProt Q13131)
Procedure: as §1

ARK5 = ARK5 (Homo sapiens (Human), UniProt O60285)
Procedure: as §1

AURKA = AURKA (Homo sapiens (Human), UniProt O14965)
Procedure: as §1

AURKC = AURKC (Homo sapiens (Human), UniProt Q9UQB9)
Procedure: as §1

AXL = AXL (Homo sapiens (Human), UniProt P30530)
Procedure: as §1

CAMK4 = CAMK4 (Homo sapiens (Human), UniProt Q16566)
Procedure: as §1

EPHA4 = EPHA4 (Homo sapiens (Human), UniProt P54764)
Procedure: as §1

EPHB3 = EPHB3 (Homo sapiens (Human), UniProt P54753)
Procedure: as §1

ERBB2 = ERBB2 (Homo sapiens (Human), UniProt P04626)
Procedure: as §1

ERBB4 = ERBB4 (Homo sapiens (Human), UniProt Q15303)
Chain of ERBB4 (Q15303 26-1308): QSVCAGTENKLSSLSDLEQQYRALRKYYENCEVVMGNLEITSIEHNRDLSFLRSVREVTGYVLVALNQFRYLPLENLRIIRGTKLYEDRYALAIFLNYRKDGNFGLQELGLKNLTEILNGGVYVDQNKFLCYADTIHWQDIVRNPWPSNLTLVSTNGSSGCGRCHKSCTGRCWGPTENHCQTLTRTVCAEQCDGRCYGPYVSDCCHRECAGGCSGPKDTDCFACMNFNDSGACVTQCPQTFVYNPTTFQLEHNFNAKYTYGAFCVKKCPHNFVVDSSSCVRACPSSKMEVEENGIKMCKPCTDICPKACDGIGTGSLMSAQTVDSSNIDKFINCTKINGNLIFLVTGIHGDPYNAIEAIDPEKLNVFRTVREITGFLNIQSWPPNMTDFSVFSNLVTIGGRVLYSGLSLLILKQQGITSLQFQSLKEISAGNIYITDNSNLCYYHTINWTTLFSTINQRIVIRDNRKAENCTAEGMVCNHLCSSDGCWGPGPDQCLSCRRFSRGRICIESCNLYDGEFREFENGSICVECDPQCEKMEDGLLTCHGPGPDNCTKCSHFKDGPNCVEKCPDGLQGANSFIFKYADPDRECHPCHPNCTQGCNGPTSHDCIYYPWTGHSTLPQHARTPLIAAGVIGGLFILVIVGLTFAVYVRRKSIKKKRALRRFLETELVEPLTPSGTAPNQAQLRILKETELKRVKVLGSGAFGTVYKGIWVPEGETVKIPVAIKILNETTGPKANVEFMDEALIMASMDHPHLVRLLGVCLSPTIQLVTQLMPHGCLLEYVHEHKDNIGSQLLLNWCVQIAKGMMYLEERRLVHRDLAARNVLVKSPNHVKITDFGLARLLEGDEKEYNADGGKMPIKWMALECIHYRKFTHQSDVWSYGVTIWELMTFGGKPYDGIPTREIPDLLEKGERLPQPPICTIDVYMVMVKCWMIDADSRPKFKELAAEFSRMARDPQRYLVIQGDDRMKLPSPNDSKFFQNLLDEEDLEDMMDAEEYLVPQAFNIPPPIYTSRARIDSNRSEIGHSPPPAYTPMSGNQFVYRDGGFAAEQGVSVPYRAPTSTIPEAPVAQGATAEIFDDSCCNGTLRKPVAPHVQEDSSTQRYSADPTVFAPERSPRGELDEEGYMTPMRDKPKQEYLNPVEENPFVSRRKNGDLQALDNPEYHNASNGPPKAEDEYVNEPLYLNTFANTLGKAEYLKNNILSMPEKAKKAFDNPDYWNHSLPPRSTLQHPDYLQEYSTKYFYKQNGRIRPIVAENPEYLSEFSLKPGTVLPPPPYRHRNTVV
Procedure: as §1

FLT3 (D835Y) = FLT3 (D835Y) (Homo sapiens (Human), UniProt P36888, D835Y)
Procedure: as §1

FLT3 (N841I) = FLT3 (N841I) (Homo sapiens (Human), UniProt P36888, N841I)
Procedure: as §1

JNK1 = JNK1 (Homo sapiens (Human), UniProt P45983)
Procedure: as §1

JNK2 = JNK2 (Homo sapiens (Human), UniProt P45984)
Procedure: as §1

KIT(A829P) = KIT(A829P) (Homo sapiens (Human), UniProt P10721, A829P)
Procedure: as §1

KIT(D816H) = KIT(D816H) (Homo sapiens (Human), UniProt P10721, D816H)
Procedure: as §1

KIT(L576P) = KIT(L576P) (Homo sapiens (Human), UniProt P10721, L576P)
Procedure: as §1

MEK5 = MEK5 (Homo sapiens (Human), UniProt Q13163)
Chain of MEK5 (Q13163 whole entry): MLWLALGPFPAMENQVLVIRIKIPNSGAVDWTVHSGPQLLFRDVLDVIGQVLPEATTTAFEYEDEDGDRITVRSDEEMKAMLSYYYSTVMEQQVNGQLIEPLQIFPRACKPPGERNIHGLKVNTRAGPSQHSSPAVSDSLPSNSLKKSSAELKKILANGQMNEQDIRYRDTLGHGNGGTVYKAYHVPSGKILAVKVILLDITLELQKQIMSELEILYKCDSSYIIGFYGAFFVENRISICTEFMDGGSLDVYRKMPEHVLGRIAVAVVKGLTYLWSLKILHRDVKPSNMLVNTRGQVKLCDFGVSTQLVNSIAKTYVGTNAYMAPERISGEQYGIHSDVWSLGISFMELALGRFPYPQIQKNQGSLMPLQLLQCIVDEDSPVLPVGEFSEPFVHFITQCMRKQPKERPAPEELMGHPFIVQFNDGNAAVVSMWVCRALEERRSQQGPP
Procedure: as §1

MLCK = MLCK (Homo sapiens (Human), UniProt Q32MK0)
Procedure: as §1

MRCKA = MRCKA (Homo sapiens (Human), UniProt Q5VT25)
Procedure: as §1

MST3 = MST3 (Homo sapiens (Human), UniProt Q9Y6E0)
Chain of MST3 (Q9Y6E0 whole entry): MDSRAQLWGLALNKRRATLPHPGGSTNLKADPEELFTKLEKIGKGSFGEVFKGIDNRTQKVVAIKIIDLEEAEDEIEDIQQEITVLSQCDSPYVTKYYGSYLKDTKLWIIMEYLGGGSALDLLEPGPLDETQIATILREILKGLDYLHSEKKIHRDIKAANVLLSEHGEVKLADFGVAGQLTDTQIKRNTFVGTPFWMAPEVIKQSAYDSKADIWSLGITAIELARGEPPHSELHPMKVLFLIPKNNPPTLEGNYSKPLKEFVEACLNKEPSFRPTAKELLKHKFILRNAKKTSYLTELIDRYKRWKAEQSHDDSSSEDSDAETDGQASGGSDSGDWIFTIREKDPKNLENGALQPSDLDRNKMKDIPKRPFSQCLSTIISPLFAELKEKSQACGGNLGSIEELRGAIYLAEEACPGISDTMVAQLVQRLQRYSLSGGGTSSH
Procedure: as §1

PIK3CA(E545A) = PIK3CA(E545A) (Homo sapiens (Human), UniProt P42336, E545A)
Procedure: as §1

PIKFYVE = PIKFYVE (Homo sapiens (Human), UniProt Q9Y2I7)
Procedure: as §1

PIP5K1C = PIP5K1C (Homo sapiens (Human), UniProt O60331)
Procedure: as §1

PKN1 = PKN1 (Homo sapiens (Human), UniProt Q16512)
Procedure: as §1

PRKCE = PRKCE (Homo sapiens (Human), UniProt Q02156)
Chain of PRKCE (Q02156 whole entry): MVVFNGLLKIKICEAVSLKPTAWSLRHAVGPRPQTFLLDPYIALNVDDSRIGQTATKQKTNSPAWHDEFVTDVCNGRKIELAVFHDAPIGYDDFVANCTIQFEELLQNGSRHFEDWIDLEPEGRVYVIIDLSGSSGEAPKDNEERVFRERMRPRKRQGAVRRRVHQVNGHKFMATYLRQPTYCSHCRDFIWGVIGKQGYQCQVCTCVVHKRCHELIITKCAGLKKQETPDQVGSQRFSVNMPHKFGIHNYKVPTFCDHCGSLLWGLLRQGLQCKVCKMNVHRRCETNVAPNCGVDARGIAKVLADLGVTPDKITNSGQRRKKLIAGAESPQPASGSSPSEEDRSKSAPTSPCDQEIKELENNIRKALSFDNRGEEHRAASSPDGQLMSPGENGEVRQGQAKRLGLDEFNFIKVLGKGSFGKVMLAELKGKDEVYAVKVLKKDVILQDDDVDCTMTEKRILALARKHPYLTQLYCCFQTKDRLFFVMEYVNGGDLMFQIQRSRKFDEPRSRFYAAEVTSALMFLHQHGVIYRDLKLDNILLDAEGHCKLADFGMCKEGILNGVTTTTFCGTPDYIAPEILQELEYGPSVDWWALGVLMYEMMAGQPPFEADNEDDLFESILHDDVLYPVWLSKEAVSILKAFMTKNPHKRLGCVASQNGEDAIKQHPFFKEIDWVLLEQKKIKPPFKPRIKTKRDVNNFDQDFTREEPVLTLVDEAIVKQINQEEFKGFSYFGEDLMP
Procedure: as §1

RAF1 = RAF1 (Homo sapiens (Human), UniProt P04049)
Chain of RAF1 (P04049 whole entry): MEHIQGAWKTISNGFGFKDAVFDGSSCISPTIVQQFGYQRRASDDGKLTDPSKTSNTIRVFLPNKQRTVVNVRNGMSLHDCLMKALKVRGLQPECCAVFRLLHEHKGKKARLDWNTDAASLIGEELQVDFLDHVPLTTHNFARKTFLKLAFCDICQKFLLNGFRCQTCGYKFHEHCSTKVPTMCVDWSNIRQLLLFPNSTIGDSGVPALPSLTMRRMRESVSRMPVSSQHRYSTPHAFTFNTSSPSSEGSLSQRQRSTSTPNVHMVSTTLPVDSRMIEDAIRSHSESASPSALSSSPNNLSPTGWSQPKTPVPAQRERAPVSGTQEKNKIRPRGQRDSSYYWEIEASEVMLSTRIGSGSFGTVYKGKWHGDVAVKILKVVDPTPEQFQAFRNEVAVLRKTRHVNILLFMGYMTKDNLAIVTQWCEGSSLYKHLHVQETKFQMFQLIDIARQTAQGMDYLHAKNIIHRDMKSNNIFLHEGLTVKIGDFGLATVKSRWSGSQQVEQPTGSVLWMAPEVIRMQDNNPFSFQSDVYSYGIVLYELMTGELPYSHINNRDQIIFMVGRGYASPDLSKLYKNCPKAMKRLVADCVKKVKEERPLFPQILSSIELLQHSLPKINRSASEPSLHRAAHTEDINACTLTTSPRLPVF
Procedure: as §1

RIPK2 = RIPK2 (Homo sapiens (Human), UniProt O43353)
Chain of RIPK2 (O43353 whole entry): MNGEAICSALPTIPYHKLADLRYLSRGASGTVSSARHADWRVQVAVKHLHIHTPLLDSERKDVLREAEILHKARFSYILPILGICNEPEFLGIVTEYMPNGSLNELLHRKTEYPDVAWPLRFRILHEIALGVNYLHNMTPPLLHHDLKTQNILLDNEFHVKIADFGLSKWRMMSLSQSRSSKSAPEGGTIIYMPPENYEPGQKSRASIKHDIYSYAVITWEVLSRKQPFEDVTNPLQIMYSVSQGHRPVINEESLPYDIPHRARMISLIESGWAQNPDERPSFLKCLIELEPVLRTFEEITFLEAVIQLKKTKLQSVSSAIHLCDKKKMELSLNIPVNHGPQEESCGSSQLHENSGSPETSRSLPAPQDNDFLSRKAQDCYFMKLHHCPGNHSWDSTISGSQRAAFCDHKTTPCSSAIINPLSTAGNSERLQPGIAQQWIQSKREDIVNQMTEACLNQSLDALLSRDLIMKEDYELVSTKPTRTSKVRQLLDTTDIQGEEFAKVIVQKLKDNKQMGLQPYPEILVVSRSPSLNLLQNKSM
Procedure: as §1

[1] = biological target: RSK3 (Kin.Dom.2-C-terminal) (Homo sapiens (Human), UniProt Q15349)
Procedure: as §1

[2] = biological target: RSK4 (Kin.Dom.2-C-terminal) (Homo sapiens (Human), UniProt Q9UK32)
Procedure: as §1

STK16 = STK16 (Homo sapiens (Human), UniProt O75716)
Procedure: as §1

TAOK3 = TAOK3 (Homo sapiens (Human), UniProt Q9H2K8)
Chain of TAOK3 (Q9H2K8 whole entry): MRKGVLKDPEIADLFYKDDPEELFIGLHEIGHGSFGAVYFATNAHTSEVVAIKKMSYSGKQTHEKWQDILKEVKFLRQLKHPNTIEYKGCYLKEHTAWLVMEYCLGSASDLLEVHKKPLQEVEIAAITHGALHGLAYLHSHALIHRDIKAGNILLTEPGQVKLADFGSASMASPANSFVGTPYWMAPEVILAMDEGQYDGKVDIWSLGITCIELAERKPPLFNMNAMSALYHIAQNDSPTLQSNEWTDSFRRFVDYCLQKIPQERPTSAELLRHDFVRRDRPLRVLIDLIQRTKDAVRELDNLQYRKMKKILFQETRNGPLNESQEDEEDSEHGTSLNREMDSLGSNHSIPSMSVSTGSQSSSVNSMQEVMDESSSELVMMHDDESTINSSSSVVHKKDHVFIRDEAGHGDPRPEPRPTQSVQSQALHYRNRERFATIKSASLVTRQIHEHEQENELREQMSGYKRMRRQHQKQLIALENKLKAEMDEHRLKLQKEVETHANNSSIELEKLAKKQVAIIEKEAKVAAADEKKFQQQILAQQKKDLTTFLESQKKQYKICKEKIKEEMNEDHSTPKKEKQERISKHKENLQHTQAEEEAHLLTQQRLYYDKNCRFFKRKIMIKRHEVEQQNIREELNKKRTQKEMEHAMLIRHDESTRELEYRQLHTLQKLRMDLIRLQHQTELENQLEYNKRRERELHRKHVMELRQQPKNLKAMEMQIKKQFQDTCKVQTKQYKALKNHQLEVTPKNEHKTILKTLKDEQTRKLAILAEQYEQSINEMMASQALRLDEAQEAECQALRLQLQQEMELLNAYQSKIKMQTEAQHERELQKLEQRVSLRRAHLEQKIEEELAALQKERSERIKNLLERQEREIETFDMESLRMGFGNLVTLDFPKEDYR
Procedure: as §1

TRKA = TRKA (Homo sapiens (Human), UniProt P04629)
Procedure: as §1

TYK2(JH2domainpseudokia) = biological target: TYK2(JH2domainpseudokia (Homo sapiens (Human), UniProt P29597))
Procedure: as §1

WEE2 = WEE2 (Homo sapiens (Human), UniProt P0C1S8)
Procedure: as §1

YSK1 = YSK1 (Homo sapiens (Human), UniProt O00506)
Procedure: as §1

SMILES | remaining binding at 1 µM (ACVR1) [%] | remaining binding at 1 µM (ALK) [%] | remaining binding at 1 µM (AMPK-alpha1) [%] | remaining binding at 1 µM (ARK5) [%] | remaining binding at 1 µM (AURKA) [%] | remaining binding at 1 µM (AURKC) [%] | remaining binding at 1 µM (AXL) [%] | remaining binding at 1 µM (CAMK4) [%] | remaining binding at 1 µM (EPHA4) [%] | remaining binding at 1 µM (EPHB3) [%] | remaining binding at 1 µM (ERBB2) [%] | remaining binding at 1 µM (ERBB4) [%] | remaining binding at 1 µM (FLT3 (D835Y)) [%] | remaining binding at 1 µM (FLT3 (N841I)) [%] | remaining binding at 1 µM (JNK1) [%] | remaining binding at 1 µM (JNK2) [%] | remaining binding at 1 µM (KIT(A829P)) [%] | remaining binding at 1 µM (KIT(D816H)) [%] | remaining binding at 1 µM (KIT(L576P)) [%] | remaining binding at 1 µM (MEK5) [%] | also measured
CCN1CCN(Cc2cc(NC(=O)c3ccc(C)c(-c4ccc5nc(NC(=O)C6CC6)cn5n4)c3)cc(C(F)(F)F)c2)CC1 [Compound I-2, 3-(2-(cyclopropanecarboxamido)imidazo[1,2-b]pyridazin-6-yl)-N-(3-((4-ethylpiperazin-1-yl)methyl)-5-(trifluoromethyl)phenyl)-4-methylbenzamide] | 100 | 8.7 | 99 | 94 | 64 | 84 | 2.1 | 94 | 0 | 30 | 82 | 71 | 23 | 0 | 96 | 46 | 0 | 38 | 0 | 21 | remaining binding at 1 µM (MLCK): 93%; remaining binding at 1 µM (MRCKA): 91%; remaining binding at 1 µM (MST3): 85%; remaining binding at 1 µM (PIK3CA(E545A)): 91%; remaining binding at 1 µM (PIKFYVE): 93%; remaining binding at 1 µM (PIP5K1C): 85%; remaining binding at 1 µM (PKN1): 98%; remaining binding at 1 µM (PRKCE): 86%; remaining binding at 1 µM (RAF1): 13%; remaining binding at 1 µM (RIPK2): 89%; remaining binding at 1 µM [1]: 98%; remaining binding at 1 µM [2]: 94%; remaining binding at 1 µM (STK16): 90%; remaining binding at 1 µM (TAOK3): 0.2%; remaining binding at 1 µM (TRKA): 0.75%; remaining binding at 1 µM (TYK2(JH2domainpseudokia)): 80%; remaining binding at 1 µM (WEE2): 100%; remaining binding at 1 µM (YSK1): 61%
CCN1CCN(Cc2cc(NC(=O)c3ccc(C)c(-c4ccc5nc(NC(=O)C6CC6)cn5c4)c3)cc(C(F)(F)F)c2)CC1 [Compound I-6, 3-(2-(cyclopropanecarboxamido)imidazo[1,2-a]pyridin-6-yl)-N-(3-((4-ethylpiperazin-1-yl)methyl)-5-(trifluoromethyl)phenyl)-4-methylbenzamide] | 100 | 16 | 90 | 100 | 94 | 91 | 3.9 | 96 | 0 | 35 | 71 | 53 | 27 | 0 | 96 | 27 | 12 | 29 | 1.8 | 17 | remaining binding at 1 µM (MLCK): 85%; remaining binding at 1 µM (MRCKA): 100%; remaining binding at 1 µM (MST3): 92%; remaining binding at 1 µM (PIK3CA(E545A)): 100%; remaining binding at 1 µM (PIKFYVE): 100%; remaining binding at 1 µM (PIP5K1C): 94%; remaining binding at 1 µM (PKN1): 98%; remaining binding at 1 µM (PRKCE): 83%; remaining binding at 1 µM (RAF1): 18%; remaining binding at 1 µM (RIPK2): 35%; remaining binding at 1 µM [1]: 89%; remaining binding at 1 µM [2]: 77%; remaining binding at 1 µM (STK16): 95%; remaining binding at 1 µM (TAOK3): 0.9%; remaining binding at 1 µM (TRKA): 0%; remaining binding at 1 µM (TYK2(JH2domainpseudokia)): 95%; remaining binding at 1 µM (WEE2): 95%; remaining binding at 1 µM (YSK1): 100%
